Data as given in article PMC7972864, “Fucoxanthin Prevents 6-OHDA-Induced Neurotoxicity by Targeting Keap1” (Oxidative Medicine and Cellular Longevity, 2021).

Target: Keap1 (Homo sapiens, UniProt Q14145)
Test: biolayer interferometry (Octet K2), biotinylated human Keap1 on the sensor
Assay type: binding

Chain of Keap1 (Q14145 whole entry): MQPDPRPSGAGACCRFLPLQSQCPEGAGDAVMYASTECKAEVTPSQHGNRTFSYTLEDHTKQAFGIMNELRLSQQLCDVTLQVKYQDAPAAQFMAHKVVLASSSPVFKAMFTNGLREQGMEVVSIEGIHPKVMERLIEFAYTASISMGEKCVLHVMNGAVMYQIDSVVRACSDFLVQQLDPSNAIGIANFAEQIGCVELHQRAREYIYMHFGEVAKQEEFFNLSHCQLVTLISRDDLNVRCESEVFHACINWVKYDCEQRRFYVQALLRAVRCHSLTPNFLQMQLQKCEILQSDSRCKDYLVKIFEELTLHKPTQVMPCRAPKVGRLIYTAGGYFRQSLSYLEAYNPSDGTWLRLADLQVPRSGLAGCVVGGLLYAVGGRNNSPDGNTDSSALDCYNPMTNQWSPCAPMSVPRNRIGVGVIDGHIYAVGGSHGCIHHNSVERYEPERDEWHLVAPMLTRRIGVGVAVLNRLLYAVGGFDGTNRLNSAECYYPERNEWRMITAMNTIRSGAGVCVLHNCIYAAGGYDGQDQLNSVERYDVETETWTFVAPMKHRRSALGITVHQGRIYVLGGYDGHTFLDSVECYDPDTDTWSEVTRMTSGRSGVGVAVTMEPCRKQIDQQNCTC

Question: How did the Kd turn out when `CC(=O)O[C@H]1CC(C)(C)C(=C=C/C(C)=C/C=C/C(C)=C/C=C/C=C(C)/C=C/C=C(\C)C(=O)C[C@@]23O[C@]2(C)C[C@@H](O)CC3(C)C)[C@](C)(O)C1` [FUC, fucoxanthin] was run?
Answer: 5.16E − 5
